Assay results taken from patent publication US20240307409A1, “ARGININE METHYLTRANSFERASE INHIBITOR AND USE THEREOF” (Cytosinlab Therapeutics Co., Ltd., priority 2021, published 2024).

Assays:
PRMT1 = PRMT1 (Homo sapiens, UniProt Q99873); experiment: PRMT1 enzyme activity test; type: biochemical; conditions: 0.5 nM PRMT1, 3H-SAM, peptide
Summary of the method: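 Radiometric methylation assay: 0.5 nM PRMT1 preincubated 15 min at room temperature with compound (10-point 3-fold series, 1% DMSO) in pH 8.0 Tris buffer with Tween-20 and DTT. 0.25 uM ³H-SAM and 0.1 uM biotinylated peptide then reacted 120 min. Product captured on streptavidin FlashPlate and counted; IC50 from four-parameter fit of % inhibition.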

Toledo cells = experiment: Toledo cell proliferation inhibition assay; type: cell-based; conditions: Homo sapiens, Toledo, 144 h; six-day assay, CellTiter-Glo
Summary of the method: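 Toledo cells seeded at 2000 cells/well in RPMI 1640 + 10% FBS and incubated with compound for six days at 37° C, 5% CO2. Viability was then read by CellTiter-Glo luminescence after 30 min orbital mixing.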

MMA in RKO cells = experiment: RKO In Cell Western assay (MMA primary antibody); type: cell-based; conditions: Homo sapiens, 72 hours, read-out: RKO ICW_EC30
Protocol: RKO was seeded at a concentration of 20,000 cells/ml into a polylysine-coated 96-well plate (Corning #3599), with 2,000 cells per well and 100 μL of culture mediumper well. 500 nL of compound was added to the 96-well plate. 3) The 96-well plate was incubated in a 37° C., 5% CO2 incubator for 72 hours. After three days, the 96-well plate was taken from the incubator, 100 μL of 8% paraformaldehyde solution was added to each well, and the plate was placed at room temperature for 15 min. After 15 min, the liquid in the plate was shaken out and the plate was washed three times with phosphate buffer (1*PBS). The liquid in the plate was shaken out and 200 μL of membrane-breaking buffer (0.1% (v/v) Tween-20 in PBS) was added and the plate was incubated on a shaker for 30 min. After half an hour, the liquid in the plate was shaken out, and blocking buffer was added and the plate was incubated for two hours at room temperature with shaking. After that, the liquid in the plate was shaken off, and the blocking solution containing primary antibody (MMA primary antibody, CST #8711S, 1:1000 v/v) was added to the 96-well plate and the plate was incubated at 4° C. overnight with shaking. The next day, the plate was washed three times with washing solution (0.05% (v/v) Tween-20 in PBS), and a blocking solution containing secondary antibody (goat anti-rabbit IgG (H+L) Invitrogen #31460, 1:10,000 v/v) was added and the plate was incubated for two hours at room temperature. Afterwards, the 96-well plate was washed four times with washing solution. The TMB mixture was added to the 96-well plate and then the plate was incubated for 15 minutes at room temperature with shaking. After that, the reaction terminating solution was added, and the value was read at OD450 nm using an microplate reader. The plate was washed three times with washing solution, and 50 μL of janusgreen staining solution was added, and the plate was incubated for 15 minutes at room temperature with shaking. The reaction was washed ten times with water until no color residue was left. 200 μL of 0.5 M hydrochloric acid solution was added to each well and the plate was incubated for 10 min at room temperature. The value was read at OD595 nm using Flexstation.
Firstly, the ratio OD450/OD595 was calculated for each well
Each plate had six DMSO negative control groups (ZPE) and six 10 μM positive control groups (HPE), and the average of the control group ratios was used to determine the percentage of activation for each test well. The compounds to be tested were triple diluted with DMSO for a total of 8 concentration points with a starting concentration of 5 μM. The equation for calculating the activation percentage of each test well was: […]

Chain of PRMT1 (Q99873 whole entry): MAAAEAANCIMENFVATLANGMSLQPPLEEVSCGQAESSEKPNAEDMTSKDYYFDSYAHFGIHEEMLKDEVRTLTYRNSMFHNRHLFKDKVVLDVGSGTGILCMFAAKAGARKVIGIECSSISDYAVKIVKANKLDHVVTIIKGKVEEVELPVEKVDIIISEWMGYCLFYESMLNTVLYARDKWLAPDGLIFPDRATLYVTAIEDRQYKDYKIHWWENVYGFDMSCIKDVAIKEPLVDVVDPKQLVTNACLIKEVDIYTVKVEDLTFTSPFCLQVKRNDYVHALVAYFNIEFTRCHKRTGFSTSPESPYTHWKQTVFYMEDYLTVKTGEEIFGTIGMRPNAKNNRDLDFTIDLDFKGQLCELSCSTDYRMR

Row | Structure (SMILES) | IC50 (PRMT1) | IC50 (Toledo cells) | EC30 (MMA in RKO cells)
1 | CNCCN(C)Cc1ncccc1N1CCC(Oc2ccccn2)CC1 [P268] | < 50 nM | 1000 to 5000 nM | –
2 | CNCCN(C)Cc1ncccc1N1CCC(Oc2cccnc2)CC1 [P269] | < 50 nM | 1000 to 5000 nM | –
3 | CNCCN(C)Cc1ncccc1N1CCc2ccc(NC(C)=O)cc2CC1 [P270] | < 50 nM | 1000 to 5000 nM | –
4 | CNCCN(C)Cc1ncccc1C1COc2ccccc2OC1 [P271] | < 50 nM | 1000 to 5000 nM | –
5 | CNCCN(C)Cc1ncccc1N1CCc2nc(N(C)C)nc(C)c2CC1 [P272] | 50 to 500 nM | 1000 to 5000 nM | –
6 | CCOC(=O)C1(CC)CCN(c2cccnc2CN(C)CCNC)CC1 [P273] | < 50 nM | 1000 to 5000 nM | –
7 | CNCCN(C)Cc1ncccc1N1CCC(N2CCC(C(=O)NC)CC2)CC1 [P275] | ≥ 500 nM | ≥ 5000 nM | –
8 | CNCCN(C)Cc1ncccc1N1CCC(N2CCCC(C(=O)NC)C2)CC1 (centres unmarked) [P276] | ≥ 500 nM | ≥ 5000 nM | –
9 | CNCCN(C)Cc1ncccc1N1CCc2nc(C)nc(C)c2CC1 [P280] | < 50 nM | ≥ 5000 nM | –
10 | CNCCN(C)Cc1ncccc1N1CC[C@H](OC)[C@H](OC)CC1 [P281] | 50 to 500 nM | ≥ 5000 nM | –
11 | CNCCN(C)Cc1ncccc1N1CCc2cnc(N(C)C)nc2CC1 [P286] | < 50 nM | 1000 to 5000 nM | –
12 | CNCCN(C)Cc1ncccc1N1CCc2cnc(C)nc2CC1 [P291] | < 50 nM | ≥ 5000 nM | –
13 | CCOCC1(COCC)CCC(c2nc(N)ccc2CN(C)CCNC)CC1 [P293, N1-((6-amino-2-(4,4-bis(ethoxymethyl)cyclohexyl)pyridin-3-yl)methyl)-N1,N2-dimethyle thane-1,2-diamine] | 50 to 500 nM | < 1000 nM | –
14 | CCC1(C(=O)NC)CCN(c2cccnc2CN(C)CCNC)CC1 [P300] | 50 to 500 nM | ≥ 5000 nM | –
15 | CCOC(=O)C1CCN(c2cccnc2CN(C)CCNC)CC1 [P301] | < 50 nM | 1000 to 5000 nM | –
16 | CNCCN(C)Cc1ncccc1N1CCC(CC(=O)OC)CC1 [P302] | < 50 nM | 1000 to 5000 nM | –
17 | CNCCN(C)Cc1ncccc1N1CCC(=CC(=O)OC)CC1 [P303] | < 50 nM | 1000 to 5000 nM | –
18 | CNCCN(C)Cc1ncccc1N1CCc2nc(OC)cc(OC)c2CC1 [P304] | < 50 nM | 1000 to 5000 nM | –
19 | CNCCN(C)Cc1ncccc1N1CCC(COc2cnc(C)nc2)CC1 [P305] | < 50 nM | < 1000 nM | –
20 | CNCCN(C)Cc1ncccc1N1CCC(COc2ccnc(C)n2)CC1 [P306] | 50 to 500 nM | 1000 to 5000 nM | –
21 | CNCCN(C)Cc1ncccc1N1CCC(Oc2cnc(C)nc2)CC1 [P313] | < 50 nM | 1000 to 5000 nM | –
22 | CNCCN(C)Cc1ncccc1N1CCC(Oc2ccnc(C)n2)CC1 [P314] | < 50 nM | ≥ 5000 nM | –
23 | CCC1(C(=O)O)CCN(c2cccnc2CN(C)CCNC)CC1 [P315] | ≥ 500 nM | ≥ 5000 nM | –
24 | CNCCN(C)Cc1ncccc1C1CCN(c2cnc(C#N)nc2)CC1 [P318] | < 50 nM | ≥ 5000 nM | –
25 | CNCCN(C)Cc1ncccc1N1CCC(Nc2ccncn2)CC1 [P319] | < 50 nM | ≥ 5000 nM | –
26 | CNCCN(C)Cc1ncccc1N1CCc2cnc(NC)nc2CC1 [P320] | < 50 nM | ≥ 5000 nM | –
27 | CNCCN(C)Cc1ncccc1N1CCc2nc(SC)nc(O)c2CC1 [P329] | 50 to 500 nM | ≥ 5000 nM | –

Now from value to molecule, other results behind:

Row | IC50 (PRMT1) | Structure (SMILES) | IC50 (Toledo cells) | EC30 (MMA in RKO cells)
28 | < 50 nM | CNCCN(C)Cc1cc(F)ccc1C1CCc2ccc(C(F)(F)F)cc2CC1 (centres unmarked) [P001] | < 1000 nM | 250 to 2500 nM
29 | < 50 nM | CNCCN(C)Cc1ccc(F)cc1[C@H]1CC[C@H](c2cccc(C)c2)CC1 [P003] | < 1000 nM | < 250 nM
30 | < 50 nM | CNCCN(C)Cc1cc(F)ccc1[C@H]1CC[C@H](c2cccc(C)c2)CC1 [P005] | < 1000 nM | 250 to 2500 nM
31 | < 50 nM | CNCCN(C)Cc1ccc(F)cc1C1CCc2cc(F)c(F)cc2CC1 [P007] | < 1000 nM | < 250 nM
32 | < 50 nM | CNCCN(C)Cc1ccc(F)cc1C1CCc2cc(F)cc(F)c2CC1 (centres unmarked) [P008] | < 1000 nM | 250 to 2500 nM
33 | < 50 nM | CNCCN(C)Cc1cc(F)ccc1C1CCc2cc(F)c(F)cc2CC1 [P009] | < 1000 nM | 250 to 2500 nM
34 | < 50 nM | CC[C@H]1CC[C@@H](c2ccccc2CN(C)CCNC)CC1 [P014] | < 1000 nM | 250 to 2500 nM
35 | < 50 nM | CCC1CCC(c2ccccc2CN(C)CCNC)CC1 (centres unmarked) [P015] | < 1000 nM | 250 to 2500 nM
36 | < 50 nM | CNCCN(C)Cc1ccc(F)cc1C1CCN(c2cccc(C)c2)CC1 [P021] | < 1000 nM | < 250 nM
37 | < 50 nM | CNCCN(C)Cc1ccccc1C1CCN(c2cccc(C)c2)CC1 [P022] | < 1000 nM | < 250 nM
38 | < 50 nM | CNCCN(C)Cc1ccccc1C1CCC2(CC1)CC(C)(C)CO2 (centres unmarked) [P039] | < 1000 nM | 250 to 2500 nM
39 | < 50 nM | CNCCN(C)Cc1ncccc1C1CCN(c2cccc(C(C)(C)C)c2)CC1 [P044] | < 1000 nM | 250 to 2500 nM
40 | < 50 nM | CCOC[C@H]1CC[C@H](c2ccccc2CN(C)CCNC)CC1 [P049] | < 1000 nM | < 250 nM
41 | < 50 nM | CNCCN(C)Cc1ccccc1[C@H]1CC[C@@]2(CCCCO2)CC1 [P050] | < 1000 nM | 250 to 2500 nM
42 | < 50 nM | CNCCN(C)Cc1ccccc1[C@H]1CC[C@]2(CCCCO2)CC1 [P051] | < 1000 nM | 250 to 2500 nM
43 | < 50 nM | CNCCN(C)Cc1ccccc1[C@H]1CC[C@]2(CCCOC2)CC1 [P052] | < 1000 nM | 250 to 2500 nM
44 | < 50 nM | CNCCN(C)Cc1ncccc1C1CCN(c2ccnc(C)n2)CC1 [P277] | < 1000 nM | –
45 | < 50 nM | CNCCN(C)Cc1ncccc1C1CCN(c2nccc(C)n2)CC1 [P278] | 1000 to 5000 nM | –
46 | < 50 nM | CNCCN(C)Cc1ncccc1C1CCN(c2cc(C)ncn2)CC1 [P279] | 1000 to 5000 nM | –
47 | < 50 nM | CNCCN(C)Cc1ncccc1C1CCN(c2ccc(S(C)(=O)=O)cc2)CC1 [P284] | 1000 to 5000 nM | –
48 | ≥ 500 nM | CNCCN(C)Cc1ncccc1C1CCN(c2cccc(C(=O)O)c2)CC1 [P285] | ≥ 5000 nM | –
49 | < 50 nM | CNCCN(C)Cc1ncccc1C1CCN(c2ccncn2)CC1 [P287] | < 1000 nM | –
50 | < 50 nM | CNCCN(C)Cc1ncccc1C1CCN(c2cnccn2)CC1 [P288] | 1000 to 5000 nM | –
51 | < 50 nM | CNCCN(C)Cc1ncccc1C1CCN(c2ncccn2)CC1 [P290] | 1000 to 5000 nM | –
52 | < 50 nM | CNCCN(C)Cc1ncc(N)nc1C1CCN(c2cccc(C)c2)CC1 [P292, N-((5-amino-3-(1-(m-tolyl)piperidin-4-yl)pyrazin-2-yl)methyl)-N,N′-dimethyl-1,2-ethyle nediamine] | < 1000 nM | –
53 | < 50 nM | CNCCN(C)Cc1ncccc1C1CCN(c2cccc(C(N)=O)c2)CC1 [P297] | ≥ 5000 nM | –
54 | < 50 nM | CNCCN(C)Cc1ncccc1C1CCN(c2ccccc2C(N)=O)CC1 [P298] | 1000 to 5000 nM | –
55 | < 50 nM | CNCCN(C)Cc1ncccc1C1CCN(c2cc(C)nc(N)n2)CC1 [P321] | 1000 to 5000 nM | –
56 | < 50 nM | CNCCN(C)Cc1ncccc1C1CCN(c2ccnc(N)n2)CC1 [P326] | 1000 to 5000 nM | –
